Consider 25 molecules from paper PMC8659031, “Substituted Aryl Benzylamines as Potent and Selective Inhibitors of 17β-Hydroxysteroid Dehydrogenase Type 3” (Molecules, 2021).

“Also recorded” adds a separate entry of the source.

One data set deals with T1, 17β-HSD3 (Homo sapiens, UniProt P37058).
T1 construct: expressed in transfected cells; host or cells: human 293-EBNA cells, stably transfected
T1 sequence (P37058 1-310): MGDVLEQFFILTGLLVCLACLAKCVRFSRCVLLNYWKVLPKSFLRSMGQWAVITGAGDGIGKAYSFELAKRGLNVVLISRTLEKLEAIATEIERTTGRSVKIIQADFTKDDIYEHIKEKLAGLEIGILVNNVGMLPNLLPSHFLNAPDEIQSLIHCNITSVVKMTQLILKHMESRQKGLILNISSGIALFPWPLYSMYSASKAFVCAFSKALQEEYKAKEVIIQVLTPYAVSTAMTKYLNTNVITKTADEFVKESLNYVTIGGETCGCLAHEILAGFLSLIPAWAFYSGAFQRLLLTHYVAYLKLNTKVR
The data set can be described thus: Assay for 17β-HSD3 activity (TLC assay) in 293-EBNA cells stably transfected with 17β-HSD3. Format: cell-based. The following applies: for inhibition at 10 µM: 293-EBNA; for IC50: 293-EBNA[HSD3] cells, read-out: IC50 (17β-HSD3). The protocol: Human 293-EBNA cells stably transfected with 17β-HSD3 were plated at 50,000 cells/well in 24 well plates in complete growth medium. After 48 h 2–3 nM [^3H]-androstenedione in assay medium (500 mL DMEM medium with 5 mL 100 × L-glutamine and 5 mL 7.5% sodium bicarbonate solution) was added with or without test compound at 1.5 mL/well (triplicate), and the cells incubated at 37 °C. Two hours later 1 mL medium was removed from each well and placed in a 125 × 16 mm glass test tube containing 25 µL of recovery solution (5000 dpm ^14C-testosterone and 25 µg unlabelled testosterone […], and the tubes vortexed at high speed for 2 × 30 s. After the samples had settled into two phases, they were snap-frozen in a dry ice/methanol bath. The upper organic phase was decanted into 75 × 12 mm tubes and evaporated to dryness under an airstream using a sample concentrator (TECHNE) at 40 °C. The samples were resuspended in ether (8 drops, then a further 3), spotted onto ca 60 F254 20 cm × 20 cm TLC plates and separated using a 4:1 v/v dichloromethane: ethyl acetate mobile phase. After drying the plates, the major spots were marked under a UV lamp, cut out and placed in individual scintillation vials containing 0.5 mL methanol. These were then shaken lightly and allowed to stand for 15 min before adding 10 mL of EcoScintA (scintillation fluid) to each tube along with 0.5 mL assay medium and counted in a scintillation spectrometer (Beckman, High Wycombe, Bucks, UK), using a program for duel [^3H/^14C] isotopes. The number of cells/well was then counted using a Coulter10 counter (Beckman). The inhibitory activity of the test compounds was then assessed by calculating the amount of product formed correcting for crossover between isotope counts, recovery, dilution and non-enzymatic degradation fmol/hr/million cells) with and without inhibitor (% inhibition).

The mark [1] stands for this setting: 10 μM, TLC assay, mean of at least two measurements, typically SD ±5%.

As to `CC(=O)Nc1ccccc1CN(C(C)=O)c1ccccc1Oc1ccc(Cl)cc1` [Compound 17, N-(2-Acetylamino-benzyl)-N-[2-(4-chloro-phenoxy)-phenyl]-acetamide], the “17β-HSD3 inhibitory activity in words” value at 17β-HSD3 is “inactive”. The molecule also came in with an inhibition at 10 µM at 17β-HSD3 (setting [1]) of under 20%. In turn, `CC(=O)Nc1cccc(CNc2ccccc2Oc2ccc(Cl)cc2)c1` [Compound 20, N-(3-[2-(4-Chloro-phenoxy)-phenylamino]-methyl-phenyl)-acetamide] showed a melting point of 187 to 190 °C. The molecule further showed an inhibition at 10 µM on 17β-HSD3 (setting [1]) of 53%.

With `CC(=O)Nc1ccccc1CNc1ccccc1Oc1ccc(OC(F)(F)F)cc1` [Compound 2, N-(2-([2-(4-Trifluoromethoxy-phenoxy)-phenylamino]-methyl)-phenyl)-acetamide], the melting point lay in the range of 98 to 100 °C. Besides, the inhibition at 10 µM on 17β-HSD3 (setting [1]) was in the range of 60 to 70%. On to `CC(=O)Nc1ccccc1CN(C)c1ccccc1Oc1ccc(Cl)cc1` [Compound 16, N-[2-(([2-(4-Chloro-phenoxy)-phenyl]-methyl-amino)-methyl)-phenyl]-acetamide], for which the “17β-HSD3 inhibitory activity in words” value on 17β-HSD3 was “inactive”. This molecule came in with an inhibition at 10 µM against 17β-HSD3 (setting [1]) of under 20%. In the case of `CCCC(Nc1ccccc1Oc1ccc(Cl)cc1)c1ccccc1NC(C)=O` (stereo not shown) [Compound 28, N-(2-(1-[2-(4-Chloro-phenoxy)-phenylamino]-butyl)-phenyl)-acetamide], the concentration for half-maximal inhibition (IC50) on 17β-HSD3 (TLC assay) was determined as 0.37 µM.

`CC(=O)Nc1c(CNc2ccccc2Oc2ccc(Cl)cc2)ccc2ccccc12` [Compound 7, N-(2-[2-(4-Chloro-phenoxy)-phenylamino]-methyl-naphthalen-1-yl)-acetamide]: the melting point lay in the range of 153 to 155 °C. Also, on 17β-HSD3 (setting [1]), the inhibition at 10 µM is under 20%. `CC(=O)Nc1ccccc1CNc1cc(F)ccc1Oc1ccc(Cl)cc1` [Compound 3, N-(2-([2-(4-Chloro-phenoxy)-5′-fluoro-phenylamino]-methyl)-phenyl)-acetamide] came in with a melting point of 178 to 180 °C. The molecule further yielded an inhibition at 10 µM against 17β-HSD3 (setting [1]) of 60 to 70%. In turn, `CC(=O)Nc1ccccc1C(Cc1ccccc1)Nc1ccccc1Oc1ccc(Cl)cc1` (stereo not shown) [Compound 27, N-(2-(1-[2-(4-Chloro-phenoxy)-phenylamino]-2-phenyl-ethyl)-phenyl)-acetamide] came in with an inhibition at 10 µM against 17β-HSD3 (setting [1]) of under 20%.

Take `CC(=O)Nc1ccc(C)cc1CNc1ccccc1Oc1ccc(Cl)cc1` [Compound 8, N-(2-[2-(4-Chloro-phenoxy)-phenylamino]-methyl-4-methyl-phenyl)-acetamide]: the melting point was in the range of 138 to 140 °C. Besides, at 17β-HSD3 (setting [1]), the inhibition at 10 µM was in the range of 60 to 70%. As to `CC(=O)Nc1ccc(CNc2ccccc2Oc2ccc(Cl)cc2Cl)cc1` [Compound 19, N-(4-([2-(2,4-Dichloro-phenoxy)-phenylamino]-methyl)-phenyl)-acetamide], on 17β-HSD3, the “17β-HSD3 inhibitory activity in words” value is “inactive”. The inhibition at 10 µM against 17β-HSD3 (setting [1]) was under 20%. At 17β-HSD3 (setting [1]), `CCNc1ccccc1C(C)Nc1ccccc1Oc1ccc(Cl)cc1` (stereo not shown) [Compound 25, N-(2–1-[2-(4-Chloro-phenoxy)-phenylamino]-ethyl-phenyl)-ethylamine] showed an inhibition at 10 µM of 20 to 60%. For `CC(=O)Nc1ccc(Cl)cc1CNc1ccccc1Oc1ccc(OC(F)(F)F)cc1` [Compound 11, N-(4-Chloro-2-[2-(4-trifluoromethoxy-phenoxy)-phenylamino]-methyl-phenyl)-acetamide], the melting point lay in the range of 121 to 123 °C. Further, the “17β-HSD3 inhibitory activity in words” value on 17β-HSD3 was “good activity”. `CC(=O)Nc1ccc(Cl)cc1CNc1ccccc1Oc1ccc(Cl)cc1Cl` [Compound 10, N-(4-Chloro-2-[2-(2,4-dichloro-phenoxy)-phenylamino]-methyl-phenyl)-acetamide] gave a melting point of 135 to 137 °C. In addition, the inhibition at 10 µM against 17β-HSD3 (setting [1]) was under 20%. On to `CC(=O)N1CCC(Nc2ccccc2CN(C(C)=O)c2ccccc2Oc2ccc(Cl)cc2)CC1` [Compound 22, N-[2-(1-Acetyl-piperidin-4-ylamino)-benzyl]-N-[2-(4-chloro-phenoxy)-phenyl]-acetamide], for which, at 17β-HSD3 (setting [1]), at 10 µM the inhibition was 55%. For `C=CCC(Nc1ccccc1Oc1ccc(Cl)cc1)c1ccccc1NC(C)=O` (stereo not shown) [Compound 26], the inhibition at 10 µM at 17β-HSD3 (setting [1]) is 20 to 60%. Moreover, the IC50 on 17β-HSD3 (TLC assay) came out at 0.52 µM. For the molecule “1-[4-(2-[2-(4-Chloro-phenoxy)-phenylamino]-methyl-phenylamino)-piperidin-1-yl]-ethanone [Compound 21]”, the “% Inhibition at 10 μM (17β-HSD3)” value on 17β-HSD3 (setting [1]) is 36%. Take `CC(=O)N(C)c1ccccc1CN(C)c1ccccc1Oc1ccc(Cl)cc1` [Compound 15, N-[2-(([2-(4-Chloro-phenoxy)-phenyl]-methyl-amino)-methyl)-phenyl]-N-methyl-acetamide]: the “17β-HSD3 inhibitory activity in words” value on 17β-HSD3 is “weakly active”. The molecule further yielded an inhibition at 10 µM on 17β-HSD3 (setting [1]) of 60 to 70%. For the molecule `CC(=O)N(C)c1ccccc1CNc1ccccc1Oc1ccc(Cl)cc1` [Compound 14, N-(2-([2-(4-Chloro-phenoxy)-phenylamino]-methyl)-phenyl)-N-methyl-acetamide], at 17β-HSD3 (TLC assay), the IC50 was 0.46 µM.

`CC(=O)Nc1ccc(Cl)cc1CNc1ccccc1Oc1ccc(Cl)cc1` [Compound 9, N-(4-Chloro-2-[2-(4-chloro-phenoxy)-phenylamino]-methyl-phenyl)-acetamide]: at 10 µM the inhibition on 17β-HSD3 (setting [1]) was 97%. Besides, on 17β-HSD3 (TLC assay), the IC50 was found to be 1.9 µM. As to `COc1cc(CNc2ccccc2Oc2ccc(Cl)cc2)c(NC(C)=O)cc1OC` [Compound 5, N-(2-[2-(4-Chloro-phenoxy)-phenylamino]-methyl-4,5-dimethoxy-phenyl)-acetamide], the melting point is 117 to 118 °C. Further, on 17β-HSD3, the “17β-HSD3 inhibitory activity in words” value is “activity was lost; also recorded: inactive”. In addition, on 17β-HSD3 (setting [1]), the inhibition at 10 µM is under 20%. For `COc1cc(CNc2ccccc2Oc2ccc(Cl)cc2Cl)c(NC(C)=O)cc1OC` [Compound 6, N-(2-([2-(2,4-Dichloro-phenoxy)-phenylamino]-methyl)-4,5-dimethoxy-phenyl)-acetamide] the same measures were 128 to 131 °C, “activity was lost; also recorded: inactive” and under 20%. Regarding `CC(=O)Nc1ccc(CNc2ccccc2Oc2ccc(Cl)cc2)cc1` [Compound 18, N-(4-([2-(4-Chloro-phenoxy)-phenylamino]-methyl)-phenyl)-acetamide], the melting point is 137 to 139 °C. Besides, 10 µM produced 29% inhibition against 17β-HSD3 (setting [1]). Molecule `CC(=O)Nc1cc2c(cc1CNc1ccccc1Oc1ccc(Cl)cc1)OCO2` [Compound 4, N-(6-[2-(4-Chloro-phenoxy)-phenylamino]-methyl-benzo[1,3]dioxol-5-yl)-acetamide] registered a melting point of 154 to 156 °C. Further, the “17β-HSD3 inhibitory activity in words” value on 17β-HSD3 is “good activity; also recorded: active”. The molecule further registered an inhibition at 10 µM on 17β-HSD3 (setting [1]) of 86%. Further, the 50% inhibitory concentration (IC50) on 17β-HSD3 (TLC assay) worked out at 0.45 µM. Consider `CC(=O)N1CCC(C(=O)Nc2cccc(CNc3ccccc3Oc3ccc(Cl)cc3)c2)CC1` [Compound 24, 1-Acetyl-piperidine-4-carboxylic acid (3-[2-(4-chloro-phenoxy)-phenylamino]-methyl-phenyl)-amide], for which the inhibition at 10 µM against 17β-HSD3 (setting [1]) worked out at 97%. Also, at 17β-HSD3 (TLC assay), the IC50 worked out at 1.1 µM.

For `C=CC[C@H](Nc1ccccc1Oc1ccc(Cl)cc1)c1ccccc1NC(C)=O` [Compound 32, S-(+)-N-(2-(1-[2-(4-Chloro-phenoxy)-phenylamino]-but-2-enyl)-phenyl)-acetamide], the melting point is 139 to 141 °C. Also, the “17β-HSD3 inhibitory activity in words” value at 17β-HSD3 is on record as “active”. Besides, at 17β-HSD3 (TLC assay), the IC50 was 0.37 µM.

Usually inhibition stands for the change of the read-out against control, counted positive when it falls. Read a low inhibition as a weak effect. As a reminder, the melting point is the temperature of the solid-liquid transition. As usually defined, the IC50 is the concentration that gives 50% inhibition. By % Inhibition is commonly meant the relative decrease from the control value, in per cent. A low value points to a response near the control.
